Reference: patent publication US20230265151A1, “GIP/GLP1 CO-AGONIST COMPOUNDS” (priority 2020, published 2023)
Like-named read-outs stand apart in the source and are kept apart here.

Experiments:
[1] = target: T1, human GLP-1 receptor (hGLP-1R) (Homo sapiens, UniProt P43220); assay: [125I]-GLP-1 binding, SPA with membranes of HEK293 cells expressing hGLP-1R
T1 construct: expressed in transfected cells; crude membranes

[2] = target: T2, human GIP receptor (hGIPR) (Homo sapiens, UniProt P48546); assay: [125I]-GIP binding, SPA with membranes of CHO cells expressing hGIPR
T2 construct: expressed in transfected cells; crude membranes
T2 sequence (P48546 22-466): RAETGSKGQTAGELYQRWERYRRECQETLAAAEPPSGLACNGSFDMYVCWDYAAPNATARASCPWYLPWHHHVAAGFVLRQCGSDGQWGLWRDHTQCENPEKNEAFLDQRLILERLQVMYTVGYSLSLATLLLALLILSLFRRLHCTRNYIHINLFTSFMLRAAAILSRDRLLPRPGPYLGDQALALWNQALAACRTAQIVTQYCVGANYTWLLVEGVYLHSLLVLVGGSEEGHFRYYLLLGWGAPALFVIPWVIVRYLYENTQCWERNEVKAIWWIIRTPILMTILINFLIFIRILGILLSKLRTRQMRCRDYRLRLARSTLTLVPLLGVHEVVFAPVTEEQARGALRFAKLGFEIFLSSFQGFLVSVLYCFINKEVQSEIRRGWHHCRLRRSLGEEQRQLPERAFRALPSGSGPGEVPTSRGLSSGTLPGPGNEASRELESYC

[3] = target: T3, hGIPR (Homo sapiens, UniProt P48546); assay: Functional cAMP formation (HTRF) in HEK-293 clonal cells expressing hGIPR, 0.1% bovine casein, without or with 1.0% human serum albumin; assay type: cell-based
T3 construct: expressed in transfected cells
T3 sequence (P48546 22-466): T2 sequence (P48546 22-466)
How it was run: (§1)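 Cells were stimulated with peptide for 30 min at 37° C, then intracellular cAMP was measured by competitive HTRF (665/620 nm ratio) and converted to nM using a cAMP standard curve. Relative EC50 and Emax came from four-parameter logistic fits of percent maximal response against peptide concentration.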

[4] = target: T4, hGCGR (Homo sapiens, UniProt P47871); assay: Functional cAMP formation (HTRF) in HEK-293 clonal cells expressing hGCGR, 0.1% bovine casein, without or with 1.0% human serum albumin; assay type: cell-based
T4 construct: expressed in transfected cells
How it was run: as §1

[5] = target: hGLP-1R (Homo sapiens, UniProt P43220); assay: Functional cAMP formation (HTRF) in HEK-293 clonal cells expressing hGLP-1R, 0.1% bovine casein, without or with 1.0% human serum albumin; assay type: cell-based; design: expressed in transfected cells; conditions: for EC50: geometric mean; for Emax: percent of maximal response to GLP-1(7-36)NH2
How it was run: as §1

[6] = human GLP-1R, geometric mean (SEM, n), read-out: Binding Affinity Ki, nM (SEM, n) hGLP-1R
[7] = human GIPR, geometric mean (SEM, n), read-out: Binding Affinity Ki, nM (SEM, n) hGIPR
[8] = HEK293, 0.1% bovine casein and 1.0% human serum albumin, 37° C., percent of maximal response to GIP(1-42)NH2, read-out: hGIPR Emax, % ± SEM
[9] = 0.1% bovine casein and 1.0% human serum albumin, 37° C., geometric mean, read-out: hGCGR EC50, nM (SEM, n)
[10] = cAMP, incubated at 37° C., 0.1% bovine casein (no human serum albumin), geometric mean, read-out: hGCGR EC50, nM (SEM, n)

T4 sequence (P47871 26-477): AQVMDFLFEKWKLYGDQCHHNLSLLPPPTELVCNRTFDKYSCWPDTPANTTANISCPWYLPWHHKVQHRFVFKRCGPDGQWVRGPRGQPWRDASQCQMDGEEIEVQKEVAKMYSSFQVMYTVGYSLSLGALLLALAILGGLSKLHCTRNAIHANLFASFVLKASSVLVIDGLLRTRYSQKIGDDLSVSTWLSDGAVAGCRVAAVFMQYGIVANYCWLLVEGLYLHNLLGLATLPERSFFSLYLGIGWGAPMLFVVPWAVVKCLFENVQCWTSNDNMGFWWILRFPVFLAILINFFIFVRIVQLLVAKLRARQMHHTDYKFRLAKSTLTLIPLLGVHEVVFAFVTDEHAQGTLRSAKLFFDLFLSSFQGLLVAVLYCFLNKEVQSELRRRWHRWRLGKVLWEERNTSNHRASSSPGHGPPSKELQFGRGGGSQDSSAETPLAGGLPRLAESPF
Chain of hGLP-1R (P43220 24-463): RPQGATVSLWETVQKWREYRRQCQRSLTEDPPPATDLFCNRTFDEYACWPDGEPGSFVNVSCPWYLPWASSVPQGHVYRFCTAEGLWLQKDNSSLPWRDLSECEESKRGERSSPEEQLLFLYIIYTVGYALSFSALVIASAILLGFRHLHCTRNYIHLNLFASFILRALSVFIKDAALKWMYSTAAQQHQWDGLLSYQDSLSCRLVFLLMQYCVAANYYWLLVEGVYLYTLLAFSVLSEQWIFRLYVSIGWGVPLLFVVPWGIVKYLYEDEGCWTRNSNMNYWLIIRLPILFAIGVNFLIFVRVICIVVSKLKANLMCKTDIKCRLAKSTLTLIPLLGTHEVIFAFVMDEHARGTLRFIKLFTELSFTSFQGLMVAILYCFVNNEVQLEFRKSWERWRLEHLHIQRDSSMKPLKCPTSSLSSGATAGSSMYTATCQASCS
T1 sequence (P43220 24-463): as above

## CCCCCCCCCCCCCCCC(=O)N[C@@H](CCC(=O)NCCOCCOCC(=O)NCCOCCOCC(=O)NCCCC[C@H](NC(=O)[C@H](CCCN)NC(=O)[C@H](CC(=O)O)NC(=O)[C@H](CC(C)C)NC(=O)[C@](C)(CC(C)C)NC(=O)[C@@H](NC(=O)[C@H](CO)NC(=O)[C@H](Cc1ccncc1)NC(=O)[C@H](CC(=O)O)NC(=O)[C@H](CO)NC(=O)[C@@H](NC(=O)[C@](C)(Cc1ccccc1F)NC(=O)[C@@H](NC(=O)CNC(=O)[C@H](CCC(=O)O)NC(=O)C(C)(C)NC(=O)[C@@H](N)Cc1ccc(O)cc1)[C@@H](C)O)[C@@H](C)O)[C@@H](C)CC)C(=O)N[C@@H](C)C(=O)N[C@@H](CCC(N)=O)C(=O)NC(C)(C)C(=O)N[C@@H](CCC(=O)O)C(=O)N[C@@H](Cc1ccccc1)C(=O)N[C@H](C(=O)N[C@H](CCC(=O)O)C(=O)N[C@@](C)(Cc1ccc(O)cc1)C(=O)N[C@@H](CC(C)C)C(=O)N[C@H](C(=O)N[C@@H](CCCCNC(=O)COCCOCCNC(=O)COCCOCCNC(=O)CC[C@H](NC(=O)CCCCCCCCCCCCCCC)C(=O)O)C(=O)NCC(=O)NCC(=O)N1CCC[C@H]1C(=O)N[C@@H](CO)C(=O)N[C@@H](CO)C(=O)NCC(=O)N[C@@H](C)C(=O)N1CCC[C@H]1C(=O)N1CCC[C@H]1C(=O)N1CCC[C@H]1C(=O)N[C@@H](CO)C(N)=O)[C@@H](C)CC)[C@@H](C)CC)C(=O)O [Example 23]
[1]; [6]
  Ki: 0.251 nM
[2]; [7]
  Ki: 0.0238 nM
[3]; 0.1% bovine casein and 1.0% human serum albumin, 37° C., geometric mean, read-out: hGIPR EC50, nM (SEM, n)
  EC50: 0.623 nM
[3]; [8]
  Emax: 95.3 ± 0.863%
[4]; [9]
  EC50: > 9950 nM
[4]; [10]
  EC50: > 9950 nM
[5]; 0.1% bovine casein and 1.0% human serum albumin, 37° C., read-out: hGLP-1R EC50, nM (SEM, n)
  EC50: 1.98 nM

## CC[C@H](C)[C@H](NC(=O)[C@H](CC(C)C)NC(=O)[C@](C)(Cc1ccc(O)cc1)NC(=O)[C@@H](CCC(=O)O)NC(=O)[C@@H](NC(=O)[C@H](Cc1cc(F)cc(F)c1)NC(=O)[C@H](CCC(=O)O)NC(=O)C(C)(C)NC(=O)[C@H](CCC(N)=O)NC(=O)[C@H](C)NC(=O)[C@H](CCCCNC(=O)COCCOCCNC(=O)COCCOCCNC(=O)CC[C@H](NC(=O)CCCCCCCCCCCCC(=O)O)C(=O)O)NC(=O)[C@H](CCCN)NC(=O)[C@H](CC(=O)O)NC(=O)[C@H](CC(C)C)NC(=O)[C@](C)(CC(C)C)NC(=O)[C@@H](NC(=O)[C@H](CO)NC(=O)[C@H](Cc1ccncc1)NC(=O)[C@H](CC(=O)O)NC(=O)[C@H](CO)NC(=O)[C@@H](NC(=O)[C@](C)(Cc1ccccc1F)NC(=O)[C@@H](NC(=O)CNC(=O)[C@H](CCC(=O)O)NC(=O)C(C)(C)NC(=O)[C@@H](N)Cc1ccc(O)cc1)[C@@H](C)O)[C@@H](C)O)[C@@H](C)CC)[C@@H](C)CC)C(=O)N[C@@H](CCC(=O)O)C(=O)NCC(=O)NCC(=O)N[C@@H](CCCCNC(=O)COCCOCCNC(=O)COCCOCCNC(=O)CC[C@H](NC(=O)CCCCCCCCCCCCC(=O)O)C(=O)O)C(=O)N[C@@H](CO)C(=O)N[C@@H](CO)C(=O)NCC(=O)N[C@@H](C)C(=O)N1CCC[C@H]1C(=O)N1CCC[C@H]1C(=O)N1CCC[C@H]1C(=O)N[C@@H](CO)C(N)=O [Example 65]
[1]; [6]
  Ki: 1.05 nM
[2]; [7]
  Ki: 0.121 nM
[3]; [8]
  Emax: 93.8 ± 6.73%
[3]; HEK293, percent of maximal response to GIP(1-42)NH2, 37° C., 0.1% bovine casein, arithmetic mean, read-out: hGIPR Emax, % ± SEM
  Emax: 95.2 ± 2.93%
[3]; cAMP, incubated at 37° C., 0.1% bovine casein (no human serum albumin), geometric mean, read-out: hGIPR EC50, nM (SEM, n)
  EC50: 0.0139 nM
[4]; [9]
  EC50: > 9950 nM
[4]; [10]
  EC50: > 9950 nM
[5]; cAMP, incubated at 37° C., 0.1% bovine casein (no human serum albumin), read-out: hGLP-1R EC50, nM (SEM, n)
  EC50: 0.3 nM

## CCCCCCCCCCCC(=O)N[C@@H](CCC(=O)NCCOCCOCC(=O)NCCOCCOCC(=O)NCCOCCOCC(=O)NCCCC[C@H](NC(=O)[C@H](CCCN)NC(=O)[C@H](CC(=O)O)NC(=O)[C@H](CC(C)C)NC(=O)[C@](C)(CC(C)C)NC(=O)[C@@H](NC(=O)C(C)(C)NC(=O)[C@H](Cc1ccncc1)NC(=O)[C@H](CC(=O)O)NC(=O)[C@H](CO)NC(=O)[C@@H](NC(=O)[C@](C)(Cc1ccccc1F)NC(=O)[C@@H](NC(=O)CNC(=O)[C@H](CCC(=O)O)NC(=O)C(C)(C)NC(=O)[C@@H](N)Cc1ccc(O)cc1)[C@@H](C)O)[C@@H](C)O)[C@@H](C)CC)C(=O)N[C@@H](C)C(=O)N[C@@H](CCC(N)=O)C(=O)NC(C)(C)C(=O)N[C@@H](CCCCNC(=O)COCCOCCNC(=O)COCCOCCNC(=O)COCCOCCNC(=O)CC[C@H](NC(=O)CCCCCCCCCCC)C(=O)O)C(=O)N[C@@H](Cc1ccccc1)C(=O)N[C@H](C(=O)N[C@H](CCC(=O)O)C(=O)N[C@@](C)(Cc1ccc(O)cc1)C(=O)N[C@@H](CC(C)C)C(=O)N[C@H](C(=O)N[C@@H](CCC(=O)O)C(=O)NCC(=O)NCC(=O)N1CCC[C@H]1C(=O)N[C@@H](CO)C(=O)N[C@@H](CO)C(=O)NCC(=O)N[C@@H](C)C(=O)N1CCC[C@H]1C(=O)N1CCC[C@H]1C(=O)N1CCC[C@H]1C(=O)N[C@@H](CO)C(N)=O)[C@@H](C)CC)[C@@H](C)CC)C(=O)O [Example 422]
[1]; [6]
  Ki: 0.194 nM
[2]; [7]
  Ki: 0.0218 nM
[3]; HEK293, cAMP, 37° C., 0.1% bovine casein and 1.0% human serum albumin, percent of maximal response to GIP(1-42)NH2, read-out: hGIPR Emax, % ± SEM
  Emax: 97.5%
[3]; cAMP, 37° C., 0.1% bovine casein (no human serum albumin), geometric mean, read-out: hGIPR EC50, nM (SEM, n)
  EC50: 0.00655 nM
[4]; cAMP, 37° C., 0.1% bovine casein (no human serum albumin), geometric mean, read-out: hGCGR EC50, nM (SEM, n)
  EC50: > 9950 nM
[4]; cAMP, 37° C., 0.1% bovine casein and 1.0% human serum albumin, geometric mean (SEM, n), read-out: hGCGR EC50, nM (SEM, n)
  EC50: > 9950 nM
[5]; cAMP, 37° C., 0.1% bovine casein (no human serum albumin), read-out: hGLP-1R EC50, nM (SEM, n)
  EC50: 0.0729 nM

## CC[C@H](C)[C@H](NC(=O)[C@H](CC(C)C)NC(=O)[C@](C)(Cc1ccc(O)cc1)NC(=O)[C@H](CCCCNC(=O)COCCOCCNC(=O)COCCOCCNC(=O)COCCOCCNC(=O)CC[C@H](NC(=O)CCCCCCCCCOc1ccc(C(=O)O)cc1)C(=O)O)NC(=O)[C@@H](NC(=O)[C@H](Cc1ccccc1)NC(=O)[C@H](CCCN)NC(=O)C(C)(C)NC(=O)[C@H](CCC(N)=O)NC(=O)[C@H](C)NC(=O)[C@H](CCC(N)=O)NC(=O)[C@H](CCCN)NC(=O)[C@H](CC(=O)O)NC(=O)[C@H](CC(C)C)NC(=O)[C@](C)(CC(C)C)NC(=O)[C@@H](NC(=O)C(C)(C)NC(=O)[C@H](Cc1ccncc1)NC(=O)[C@H](CC(=O)O)NC(=O)[C@H](CO)NC(=O)[C@@H](NC(=O)[C@](C)(Cc1ccccc1F)NC(=O)[C@@H](NC(=O)CNC(=O)[C@H](CCC(=O)O)NC(=O)C(C)(C)NC(=O)[C@@H](N)Cc1ccc(O)cc1)[C@@H](C)O)[C@@H](C)O)[C@@H](C)CC)[C@@H](C)CC)C(=O)N[C@@H](CCCCNC(=O)COCCOCCNC(=O)COCCOCCNC(=O)COCCOCCNC(=O)CC[C@H](NC(=O)CCCCCCCCCOc1ccc(C(=O)O)cc1)C(=O)O)C(=O)NCC(=O)NCC(=O)N1CCC[C@H]1C(=O)N[C@@H](CO)C(=O)N[C@@H](CO)C(=O)NCC(=O)N[C@@H](C)C(=O)N1CCC[C@H]1C(=O)N1CCC[C@H]1C(=O)N1CCC[C@H]1C(=O)N[C@@H](CO)C(N)=O [Example 477]
[1]
  Ki: 0.143 nM
[2]
  Ki: 0.0279 nM
[3]; HEK293, read-out: hGIPR Emax, % ± SEM, cAMP, 37° C., 0.1% bovine casein and 1.0% human serum albumin, percent of maximal response to GIP(1-42)NH2
  Emax: 88.1%
[3]; hGIPR EC50, nM (SEM, n), cAMP, 37° C., 0.1% bovine casein (no human serum albumin), geometric mean
  EC50: 0.00861 nM
[3]; hGIPR EC50, nM (SEM, n), cAMP, 37° C., 0.1% bovine casein and 1.0% human serum albumin, geometric mean (SEM, n)
  EC50: 0.163 nM
[4]; hGCGR EC50, nM (SEM, n), cAMP, 37° C., 0.1% bovine casein (no human serum albumin), geometric mean
  EC50: > 9950 nM
[4]; hGCGR EC50, nM (SEM, n), cAMP, 37° C., 0.1% bovine casein and 1.0% human serum albumin, geometric mean (SEM, n)
  EC50: > 9950 nM
[5]; HEK293, read-out: hGLP-1R Emax, % ± SEM, cAMP, 37° C., 0.1% bovine casein and 1.0% human serum albumin
  Emax: 110%
[5]; HEK293, read-out: hGLP-1R Emax, % ± SEM, cAMP, 37° C., 0.1% bovine casein, arithmetic mean
  Emax: 110%
[5]; hGLP-1R EC50, nM (SEM, n), cAMP, 37° C., 0.1% bovine casein (no human serum albumin)
  EC50: 0.143 nM
